Laboratory results reported in publication PMC10533412, “Phosphoantigens glue butyrophilin 3A1 and 2A1 to activate Vγ9Vδ2 T cells” (Nature, 2023).
Values joined by “and” are separate entries in the source; they are usually repeats but may differ in a detail not shown here. Equal entries are not always repeated. Where two headings read alike, the source gives them in different places.

Experiments:
[1] = tested on: BTN2A−/− MIA PaCa-2 (BTN2A1/BTN2A2 KO) cells; assay: Cell killing assay with BTN2A−/− MIA PaCa-2 (BTN2A1/BTN2A2 KO) cells expressing BTN2A1/BTN2A2 variants; details: for Cytotoxicity of Vγ9Vδ2 T cells (percentage of specific lysis): replicates; for EC50: Homo sapiens
Procedure: MIA PaCa-2 cells were infected with lentivirus bearing luciferase transgene. Luciferase-positive cells were plated at 5.0 × 10^3 cells per well in 384-well plates 1 day before transfection. All plasmids were transfected into BTN2A^−/− MIA PaCa-2 (BTN2A1/BTN2A2 KO) cells using Lipofectamine 2000 reagent. […] Stable-lite luciferase (Vazyme) was added to each well and the luciferase signal was immediately measured by using the PerkinElmer EnVision microplate reader.
Percentage of lysis was calculated using the following equation: percentage of specific lysis = (maximum luciferase − experimental luciferase)/maximum luciferase × 100.

[2] = tested on: VpBTN2 BFI–VpBTN3 BFI; assay: ITC: VpBTN2 BFI binding to VpBTN3 BFI in the presence of pAg; set-up: species or system alpaca (Vicugna pacos)
Procedure: ITC binding fits were calculated using MicroCal Analysis software.
ITC experiments of HMBPP, DMAPP or IPP binding to the VpBTN3 BFI (or the preconditioned VpBTN3 BFI and VpBTN2 BFI complex) and VpBTN2 BFI (or VpBTN1 BFI) binding to VpBTN3 BFI in the presence of HMBPP, DMAPP or IPP were performed according to the same procedures as for the BTN3A1 B30.2 and BTN2A1 B30.2.

[3] = tested on: MIA PaCa-2 cells; assay: AFM-SCFS binding force between a Vγ9Vδ2 T cell and a MIA PaCa-2 cell; type: cell-based, human; set-up: binding force, Mean, Fig. 6b / binding force, Median, Fig. 6b: unit not given here
Procedure: The AFM-SCFS analysis procedure was performed using the JPK CellHesion unit as previously described, and closely followed our previously reported protocol for APCs[4]. […] The glass disks were quickly transferred to an AFM adapter with immediate addition of 1 ml of fresh medium (DMEM: 10% FBS and 1% penicillin–streptomycin). […] The raw data were normalized to the background readings. Blank readings for each set of affinity measurements (Vγ9Vδ2 T cells touching the glass surface) were collected immediately before each assay to perform background subtraction. All data were analysed using the JPK image processing software. […] The following steps were the same as described above.

[4] = Ext. Fig. 6d, cells expressing 2A2 W374R/M506T, three-parameter fit
[5] = Ext. Fig. 6d, cells expressing 2A2 W374R, three-parameter fit
[6] = Ext. Fig. 6d, cells expressing 2A2 WT, three-parameter fit
[7] = 2A1-KO cells + HMBPP, 31 values
[8] = 2A1ΔB30.2 cells + HMBPP, 39 values

## C/C(=C\COP(=O)(O)OP(=O)(O)O)CO [Compound 1, (E)-4-hydroxy-3-methylbut-2-en-1-yl diphosphate]
[1]; [4]
  Bottom (best-fit value): 21.03
  Span (best-fit value): 27.17
  Top (best-fit value): 48.19
[1]; [5]
  Bottom (best-fit value): 17.13
  Span (best-fit value): 18.41
  Top (best-fit value): 35.54
[1]; [6]
  Bottom (best-fit value): 21.2
  Span (best-fit value): 14.17
  Top (best-fit value): 35.37
[1]; HMBPP log concentration -4, 2A1 WT cells
  Cytotoxicity of Vγ9Vδ2 T cells (percentage of specific lysis): 70.1646% and 71.1001% and 71.513%
[1]; HMBPP log concentration -4, 2A1 ∆C cells
  Cytotoxicity of Vγ9Vδ2 T cells (percentage of specific lysis): 41.112% and 41.0173% and 41.0139%
[1]; HMBPP log concentration -5, 2A1 WT cells
  Cytotoxicity of Vγ9Vδ2 T cells (percentage of specific lysis): 64.2316% and 64.2674% and 65.8786%
[1]; HMBPP log concentration -5, 2A1 ∆C cells
  Cytotoxicity of Vγ9Vδ2 T cells (percentage of specific lysis): 23.0147% and 25.2364% and 24.5941%
[1]; HMBPP log concentration -6, 2A1 WT cells
  Cytotoxicity of Vγ9Vδ2 T cells (percentage of specific lysis): 56.2518% and 58.0065% and 60.1294%
[1]; HMBPP log concentration -6, 2A1 ∆C cells
  Cytotoxicity of Vγ9Vδ2 T cells (percentage of specific lysis): 18.5277% and 22.0034% and 20.9688%
[1]; HMBPP log concentration -7, 2A1 WT cells
  Cytotoxicity of Vγ9Vδ2 T cells (percentage of specific lysis): 48.0249% and 51.1234% and 56.1132%
[1]; HMBPP log concentration -7, 2A1 ∆C cells
  Cytotoxicity of Vγ9Vδ2 T cells (percentage of specific lysis): 26.9403% and 18.9725% and 19.5843%
[1]; HMBPP log concentration -8, 2A1 WT cells
  Cytotoxicity of Vγ9Vδ2 T cells (percentage of specific lysis): 44.2956% and 44.0311% and 51.5761%
[1]; HMBPP log concentration -8, 2A1 ∆C cells
  Cytotoxicity of Vγ9Vδ2 T cells (percentage of specific lysis): 23.996% and 19.5568% and 15.4363%
[1]; HMBPP log concentration -9, 2A1 WT cells
  Cytotoxicity of Vγ9Vδ2 T cells (percentage of specific lysis): 35.2231% and 37.6052% and 42.4431%
[1]; HMBPP log concentration -9, 2A1 ∆C cells
  Cytotoxicity of Vγ9Vδ2 T cells (percentage of specific lysis): 20.428% and 19.6068% and 15.0611%
[1]; HMBPP log concentration -10, 2A1 WT cells
  Cytotoxicity of Vγ9Vδ2 T cells (percentage of specific lysis): 29.643% and 30.0604% and 32.9175%
[1]; HMBPP log concentration -10, 2A1 ∆C cells
  Cytotoxicity of Vγ9Vδ2 T cells (percentage of specific lysis): 15.4573% and 16.0868% and 15.1497%
[1]; HMBPP log concentration -11, 2A1 WT cells
  Cytotoxicity of Vγ9Vδ2 T cells (percentage of specific lysis): 26.3218% and 25.6969% and 24.6851%
[1]; HMBPP log concentration -11, 2A1 ∆C cells
  Cytotoxicity of Vγ9Vδ2 T cells (percentage of specific lysis): 16.8095% and 15.8259% and 16.2096%
[1]; MIA PaCa-2, 144 h, Ext. Fig. 6d, cells expressing 2A1 WT, three-parameter fit
  EC50: 90.3 nM
[1]; MIA PaCa-2, 144 h, Ext. Fig. 6d, cells expressing 2A2 G352Y354QR/M506T/W374R, three-parameter fit
  EC50: 176 nM
[1]; MIA PaCa-2, 144 h, Ext. Fig. 6d, cells expressing 2A2 M506T, three-parameter fit
  EC50: 266 nM
[1]; MIA PaCa-2, 144 h, Ext. Fig. 6d, cells expressing 2A2 W374R/M506T, three-parameter fit
  EC50: 191 nM
[1]; MIA PaCa-2, 144 h, read-out: LogEC50, Ext. Fig. 6d (converted), cells expressing 2A1 WT, log(Concentration)/M, three-parameter fit
  EC50: 90.2 nM
[1]; MIA PaCa-2, 144 h, read-out: LogEC50, Ext. Fig. 6d (converted), cells expressing 2A2 G352Y354QR/M506T/W374R, log(Concentration)/M, three-parameter fit
  EC50: 176 nM
[1]; MIA PaCa-2, 144 h, read-out: LogEC50, Ext. Fig. 6d (converted), cells expressing 2A2 M506T, log(Concentration)/M, three-parameter fit
  EC50: 267 nM
[1]; MIA PaCa-2, 144 h, read-out: LogEC50, Ext. Fig. 6d (converted), cells expressing 2A2 W374R/M506T, log(Concentration)/M, three-parameter fit
  EC50: 191 nM
[1]; MIA PaCa-2, read-out: EC50 (nM), MIA PaCa-2 cell lysis by Vγ9Vδ2 T cells exposed to HMBPP, 2A1 WT
  EC50: 90.3 nM
[1]; MIA PaCa-2, read-out: EC50 (nM), MIA PaCa-2 cell lysis by Vγ9Vδ2 T cells exposed to HMBPP, active chimera bearing G352Y354QR/ M506T/W374R
  EC50: 176 nM
[1]; MIA PaCa-2, read-out: EC50 (nM), MIA PaCa-2 cell lysis by Vγ9Vδ2 T cells exposed to HMBPP, active chimera bearing W374R/M506T
  EC50: 191 nM
[1]; MIA PaCa-2, read-out: EC50 (μM) of Vγ9Vδ2 T cells towards BTN2A−/− MIA PaCa-2 in the presence of HMBPP, NT cells
  EC50: 12800 nM
[1]; MIA PaCa-2, read-out: EC50 (μM) of Vγ9Vδ2 T cells towards BTN2A−/− MIA PaCa-2 in the presence of HMBPP, transfected 2A1 WT
  EC50: 800 nM
[1]; MIA PaCa-2, read-out: EC50 (μM) of Vγ9Vδ2 T cells towards BTN2A−/− MIA PaCa-2 in the presence of HMBPP, transfected 2A1 variant D455G/E457R
  EC50: 61100 nM
[1]; MIA PaCa-2, read-out: EC50 (μM) of Vγ9Vδ2 T cells towards BTN2A−/− MIA PaCa-2 in the presence of HMBPP, transfected 2A1 variant R477A
  EC50: 19700 nM
[1]; MIA PaCa-2, read-out: EC50 (μM) of Vγ9Vδ2 T cells towards BTN2A−/− MIA PaCa-2 in the presence of HMBPP, transfected 2A1 variant T510A
  EC50: 1.17e+06 nM
[1]; MIA PaCa-2, read-out: EC50 (μM) of Vγ9Vδ2 T cells towards BTN2A−/− MIA PaCa-2 in the presence of HMBPP, transfected 2A1 variant T510M
  EC50: 97700 nM
[1]; MIA PaCa-2, read-out: EC50 (μM) of Vγ9Vδ2 T cells towards BTN2A−/− MIA PaCa-2 in the presence of HMBPP, transfected 2A1 variant V511A
  EC50: 130000 nM
[1]; MIA PaCa-2, read-out: EC50 (μM) of Vγ9Vδ2 T cells towards BTN2A−/− MIA PaCa-2 in the presence of HMBPP, transfected 2A1 variant V511D
  EC50: 12500 nM
[1]; MIA PaCa-2, read-out: EC50 (μM) of Vγ9Vδ2 T cells towards BTN2A−/− MIA PaCa-2 in the presence of HMBPP, transfected 2A1 variant V511W
  EC50: 389000 nM
[1]; MIA PaCa-2, read-out: EC50 (μM) of Vγ9Vδ2 T cells towards BTN2A−/− MIA PaCa-2 in the presence of HMBPP, transfected 2A1 variant ΔC
  EC50: 17500 nM
[1]; MIA PaCa-2, read-out: EC50, MIA PaCa-2 lysis, BTN2A−/− MIA PaCa-2 stably expressing BTN2A1 WT
  EC50: 12.9 nM
[1]; MIA PaCa-2, read-out: EC50, best-fit value, 2A1 WT, unit not printed in the sheet (b166 prints […])
  EC50: 12.9 nM
[1]; MIA PaCa-2, read-out: EC50, best-fit value, 2A1 ∆C, unit not printed in the sheet (b166 prints […])
  EC50: 43900 nM
[2]
  Binding of VpBTN2 mutants (R475A, T508M and V509A) to VpBTN3 in the presence of HMBPP: abolished its binding
[3]; [7]
  binding force, Mean, Fig. 6b: 767.7
  binding force, Median, Fig. 6b: 745
[3]; 2A1 cells + HMBPP, 31 values
  binding force, Mean, Fig. 6b: 1509
  binding force, Median, Fig. 6b: 1510
[3]; [8]
  binding force, Mean, Fig. 6b: 594.3
  binding force, Median, Fig. 6b: 585
[3]; after HMBPP treatment (1 µM, 4 h), untreated 558 pN
  Binding force between a Vγ9Vδ2 T cell and a MIA PaCa-2 cell: 1,554 pN
